Experimental findings from patent publication US20250197399A1, “COMPOUNDS, COMPOSITIONS, AND METHODS” (Tenvie Therapeutics, Inc., priority 2022, published 2025) are described below.

The subject of this assay is NLRP3. As to the kind of experiment: IL-1β secretion assay in PMA-differentiated, LPS/nigericin-stimulated THP-1 cells (ELISA). It counts as cell-based. The following applies: 25 ng/mL LPS then nigericin, IL-1β in supernatant. Here is the method: Compounds as provided herein were tested in the following assay. Cell culture medium employed contained RPMI 1640 medium (89%), FBS (10%), Pen/Strep (1%), and 2-mercaptoethanol (0.05 mM). Freezing medium was made up of 90% FBS and 10% DMSO. THP-1 cells were removed from the liquid nitrogen and placed into a 37° C. water bath to thaw, until signs of ice dissipated. The cells were then added to 9 mL of warm cell culture medium and centrifuged for 5 minutes at 1000 rpm. The supernatant was discarded, and the cells were resuspended in new cell culture medium. THP-1 cells were then split and cultured in the cell culture medium, being passaged every 2-3 days with the cell density will be maintained between 5×10^5 and 1.5×10^6 viable cells/mL.
PMA was dissolved in DMSO to make a stock solution at 5 mg/ml and stored in 10 μl aliquots at −20° C. for single use. PMA is added to normal growth medium. LPS was diluted with 1 mL of water solution to provide a 1 mg/mL stock solution and stored in 15 μL aliquots at −20° C. for single use. Nigericin is diluted in ice cold 100% ethanol to 5 mg/ml (6.7 mM) and stored in 75 μL aliquots at −20° C. for single use. Serum-free media contains RPMI 1640 medium (99%), Pen/Strep (1%), and 2-mercaptoethanol (0.05 mM). The two control conditions used to qualify and normalize test compound dose-response curves were as follows: High Control=25 ng/mL LPS, […], 0.5% DMSO, Low Control=25 ng/mL, LPS, 0.5% DMSO.
THP-1 cells were diluted to provide a suspension at a concentration of 1.0×10^6 cells/mL with the total volume of suspension required to enable the desired number of assay plates. The growth media was supplemented with PMA (5 ng/mL final concentration) and the cells were incubated at 37° C. under a humidified atmosphere of 5% CO2 for 40 h.
All media was carefully aspirated from each culture flask. The cells were washed carefully with 1×DPBS. The cells were then briefly digested with trypsin LE for 5 minutes at 23° C. and immediately resuspended in cell growth media. After resuspension, the cells were centrifuged at 1000 rpm for 3 minutes and the supernatant was discarded. The cells were resuspended in DPBS and once again centrifuged at 1000 rpm for 5 minutes. The supernatant was discarded and the cell pellet was resuspended in serum-free media supplemented with LPS (25 ng/mL final concentration) to enable the distribution of 30K THP-1 cells within 45 μL of media into each well of 384-well PDL-coated plates. The 384-well plates were then incubated at 37° C. under a humidified atmosphere of 5% CO2 for 2 h. Following this period, test compounds were dispensed by Tecan across the desired concentration range with all wells normalized to a final 0.5% DMSO concentration. The plates were then then incubated at 37° C. under a humidified atmosphere of 5% CO2 for 1 h. Following this period, 5 μL of the 5 mg/mL nigericin stock solution was added to each of the appropriate wells and plates were centrifuged at 1000 rpm for 30 seconds. The plates were the immediately reintroduced to the incubator at 37° C. under a humidified atmosphere of 5% CO2 for 2 h. After this time, 35 μL/well of supernatant was collected and transferred into v-bottom plate and centrifuged at 1000 rpm for 1 minute. These supernatant aliquots were analyzed using an IL-Iβ detection kit as described below. If needed, the test samples could be snap frozen and stored at −80° C. until analyzed.
To prepare each ELISA plate, capture antibody (mAb Mt175) was diluted with PBS to a final concentration of […] and then 20 μL of this solution was added to each well of the ELISA plate. Each plate was allowed to incubate overnight at 4° C. The next day, the capture antibody solution was removed and discarded. Each ELISA plate was washed 4 times with PBST followed by the addition of 25 µL/well of blocking buffer (Licor-927-40010) supplemented with 0.1% Tween 20. Each ELISA plate was then allowed to incubate for 1 hour at 23° C. […]

[1] abbreviates: THP-1 cells, read-out: Activity.
Where [2] appears, read: THP-1 cells, read-out: Activity (IC50 class).
Setting [3] is: Homo sapiens, THP-1, THP-1 cells, read-out: Activity.
Setting [4] is: Homo sapiens, THP-1, THP-1 cells, read-out: Activity (IC50 class).

Each structure is given as a SMILES string. Read-outs that look alike come from different tables or passages of the source.

Regarding `O=C(CN1CC2(CC2(F)F)c2c(ccc(C3CC3)c2F)C1=O)Nc1ncc(Cl)cn1` (single isomer, unassigned) [Example 35, N-(5-chloropyrimidin-2-yl)-2-[6-cyclopropyl-1′,1′,5-trifluoro-1-oxospiro[3H-isoquinoline-4,2′-cyclopropane]-2-yl]acetamide], the IC50 is 16 nM under setting [1] and less than 1000 nM under setting [2].

With `C[C@]1(O)C[C@@H](NC(=O)CN2C[C@]3(C[C@H]3F)c3cc(C4(F)CC4)ccc3C2=O)C1` [Example 4, N-(3-cis-hydroxy-3-methylcyclobutyl)-2-[(2′R,4S)-2′-fluoro-6-(1-fluorocyclopropyl)-1-oxospiro[3H-isoquinoline-4,1′-cyclopropane]-2-yl]acetamide], the IC50 reads like this: under setting [3], 16 nM; under setting [4], less than 1000 nM.

As to `O=C(CN1CC2(CC2)c2cc(Br)ccc2C1=O)Nc1ncc2cn[nH]c2n1` [Example 42, 2-(6-bromo-1-oxo-spiro[3H-isoquinoline-4,1′-cyclopropane]-2-yl)-N-(1H-pyrazolo[3,4-d]pyrimidin-6-yl)acetamide], the IC50 by setting is: under setting [3], 61 nM; under setting [4], less than 1000 nM.

As to `O=C(CN1CC2(CC2)c2cc(Br)ccc2C1=O)NC1CC(O)(C2CC2)C1` (single isomer, unassigned) [Example 57, 2-(6-bromo-1-oxospiro[3H-isoquinoline-4,1′-cyclopropane]-2-yl)-N-(3-cyclopropyl-3-hydroxycyclobutyl)acetamide], the IC50 is 11100 nM under setting [1] and more than 10000 nM under setting [2].

For `Cc1cnc(NC(=O)CN2CC3(CC3(F)F)c3c(ccc(Br)c3F)C2=O)nc1` (single isomer, unassigned) [Example 32, N-(5-methylpyrimidin-2-yl)-2-[6-bromo-1′,1′,5-trifluoro-1-oxospiro[3H-isoquinoline-4,2′-cyclopropane]-2-yl]acetamide], the IC50 was 28600 nM under setting [1] and more than 10000 nM under setting [2].

For the compound `O=C(CN1CC2(CC2(F)F)c2cc(C(F)(F)F)ccc2C1=O)Nc1ncc(F)cn1` (single isomer, unassigned) [Example 40, N-(5-fluoropyrimidin-2-yl)-2-[1′,1′-difluoro-6-(trifluoromethyl)-1-oxospiro[3H-isoquinoline-4,2′-cyclopropane]-2-yl]acetamide], the IC50 was 1000 to 10000 nM under setting [4] and 9370 nM under setting [1].

For the compound `O=C(CN1C[C@@]2(C[C@@H]2F)c2c(ccc(C(F)(F)F)c2F)C1=O)Nc1ncc(Cl)cn1` (single isomer, unassigned) [Example 13, 2-[(2′s,4r)-2′,5-difluoro-1-oxo-6-(trifluoromethyl)spiro[3H-isoquinoline-4,1′-cyclopropane]-2-yl]-N-(5-chloropyrimidin-2-yl)acetamide], the IC50 was 232 nM under setting [1] and less than 1000 nM under setting [2].

Turning to `C[C@]1(O)C[C@@H](NC(=O)CN2CC3(CC3(F)F)c3cc(Br)ccc3C2=O)C1` (single isomer, unassigned) [Example 21, N-(3-cis-hydroxy-3-methylcyclobutyl)-2-[6-bromo-1′,1′-difluoro-1-oxospiro[3H-isoquinoline-4,2′-cyclopropane]-2-yl]acetamide], the IC50 by setting is: under setting [1], 58 nM; under setting [2], less than 1000 nM.

As to `C[C@]1(O)C[C@@H](NC(=O)CN2CC(C(F)(F)F)c3cc(I)ccc3C2=O)C1` (single isomer, unassigned) [Example 11, N-(3-cis-hydroxy-3-methylcyclobutyl)-2-(6-iodo-1-oxo-4-(trifluoromethyl)-3,4-dihydroisoquinolin-2(1H)-yl)acetamide], the IC50 is 57 nM under setting [1] and less than 1000 nM under setting [2].

As to `O=C(CN1CC2(CC2)c2cc(Br)ccc2C1=O)Nc1ncc2nc[nH]c2n1` [Example 55, 2-(6-bromo-1-oxospiro[3H-isoquinoline-4,1′-cyclopropane]-2-yl)-N-(9H-purin-2-yl)acetamide], the IC50 by setting is: under setting [3], 114 nM; under setting [4], less than 1000 nM.
